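Exposure lasted 48 hours, with cells grown in 96-well plates and compounds tested at five concentrations. TGI marks complete inhibition of growth.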
Columns and labels:
Assay in all cases: DTP human tumour cell line panel, 48 h
HCT-15 colon = system: HCT-15 colon
HCT-116 colon = system: HCT-116 colon
M19-MEL melanoma = system: M19-MEL melanoma
SN12C renal = system: SN12C renal
KM20L2 colon = system: KM20L2 colon
OVCAR-5 ovarian = system: OVCAR-5 ovarian
HT29 colon = system: HT29 colon
UO-31 renal = system: UO-31 renal
SNB-75 CNS = system: SNB-75 CNS
MALME-3M melanoma = system: MALME-3M melanoma
COLO 205 colon = system: COLO 205 colon
LOX IMVI melanoma = system: LOX IMVI melanoma
DLD-1 colon = system: DLD-1 colon
SK-MEL-2 melanoma = system: SK-MEL-2 melanoma
SNB-78 CNS = system: SNB-78 CNS
SW-620 colon = system: SW-620 colon
K-562 leukemia = system: K-562 leukemia
SK-MEL-5 melanoma = system: SK-MEL-5 melanoma
OVCAR-4 ovarian = system: OVCAR-4 ovarian
DMS 114 small cell lung = system: DMS 114 small cell lung
NCI-H522 lung = system: NCI-H522 lung
SK-OV-3 ovarian = system: SK-OV-3 ovarian
IGROV1 ovarian = system: IGROV1 ovarian
DMS 273 small cell lung = system: DMS 273 small cell lung
A549 NSCLC = system: A549 NSCLC
SF-268 CNS = system: SF-268 CNS
U251 CNS = system: U251 CNS
UACC-257 melanoma = system: UACC-257 melanoma
ACHN renal = system: ACHN renal
NCI-H23 lung = system: NCI-H23 lung
TK-10 renal = system: TK-10 renal
CCRF-CEM leukemia = system: CCRF-CEM leukemia
SNB-19 CNS = system: SNB-19 CNS
CAKI-1 renal = system: CAKI-1 renal
SF-539 CNS = system: SF-539 CNS
NCI-H460 lung = system: NCI-H460 lung
NCI-H226 lung = system: NCI-H226 lung
HCC-2998 colon = system: HCC-2998 colon
LXFL 529 NSCLC = system: LXFL 529 NSCLC
RPMI-8226 leukemia = system: RPMI-8226 leukemia
HL-60(TB) leukemia = system: HL-60(TB) leukemia
786-0 renal = system: 786-0 renal
SR leukemia = system: SR leukemia
HOP-62 NSCLC = system: HOP-62 NSCLC
EKVX NSCLC = system: EKVX NSCLC
M14 melanoma = system: M14 melanoma
KM12 colon = system: KM12 colon
RXF 393 renal = system: RXF 393 renal
SF-295 CNS = system: SF-295 CNS
OVCAR-8 ovarian = system: OVCAR-8 ovarian
HOP-92 NSCLC = system: HOP-92 NSCLC
SK-MEL-28 melanoma = system: SK-MEL-28 melanoma
A498 renal = system: A498 renal
MOLT-4 leukemia = system: MOLT-4 leukemia
UACC-62 melanoma = system: UACC-62 melanoma
DU-145 prostate = system: DU-145 prostate
OVCAR-3 ovarian = system: OVCAR-3 ovarian
MDA-N = system: MDA-N
BT-549 breast = system: BT-549 breast
HS 578T breast = system: HS 578T breast
MDA-MB-231 breast = system: MDA-MB-231 breast
MCF7 breast = system: MCF7 breast
PC-3 prostate = system: PC-3 prostate
NCI/ADR-RES ovarian = system: NCI/ADR-RES ovarian
MDA-MB-435 = system: MDA-MB-435
T-47D breast = system: T-47D breast

CC(=O)C(CN(C)Cc1ccccc1)C(c1ccccc1)c1c(O)c2ccccc2oc1=O (centres undefined)
TGI (HCT-15 colon): > 100 µM | TGI (HCT-116 colon): > 100 µM | TGI (M19-MEL melanoma): > 100 µM | TGI (SN12C renal): > 100 µM | TGI (KM20L2 colon): > 100 µM | TGI (OVCAR-5 ovarian): > 100 µM | TGI (HT29 colon): > 100 µM | TGI (UO-31 renal): 83.7 µM | TGI (SNB-75 CNS): > 100 µM | TGI (MALME-3M melanoma): > 100 µM | TGI (COLO 205 colon): > 100 µM | TGI (LOX IMVI melanoma): > 100 µM | TGI (DLD-1 colon): > 100 µM | TGI (SK-MEL-2 melanoma): > 100 µM | TGI (SNB-78 CNS): > 100 µM | TGI (SW-620 colon): > 100 µM | TGI (K-562 leukemia): > 100 µM | TGI (SK-MEL-5 melanoma): > 100 µM | TGI (OVCAR-4 ovarian): > 100 µM | TGI (DMS 114 small cell lung): > 100 µM | TGI (NCI-H522 lung): > 100 µM | TGI (SK-OV-3 ovarian): > 100 µM | TGI (IGROV1 ovarian): > 100 µM | TGI (DMS 273 small cell lung): > 100 µM | TGI (A549 NSCLC): > 100 µM | TGI (SF-268 CNS): > 100 µM | TGI (U251 CNS): > 100 µM | TGI (UACC-257 melanoma): > 100 µM | TGI (ACHN renal): > 100 µM | TGI (NCI-H23 lung): > 100 µM | TGI (TK-10 renal): > 100 µM | TGI (CCRF-CEM leukemia): > 100 µM | TGI (SNB-19 CNS): 93.2 µM | TGI (CAKI-1 renal): > 100 µM | TGI (SF-539 CNS): > 100 µM | TGI (NCI-H460 lung): > 100 µM | TGI (NCI-H226 lung): 99.5 µM | TGI (HCC-2998 colon): > 100 µM | TGI (LXFL 529 NSCLC): > 100 µM | TGI (RPMI-8226 leukemia): > 100 µM | TGI (HL-60(TB) leukemia): > 100 µM | TGI (786-0 renal): > 100 µM | TGI (SR leukemia): > 100 µM | TGI (HOP-62 NSCLC): > 100 µM | TGI (EKVX NSCLC): > 100 µM | TGI (M14 melanoma): > 100 µM | TGI (KM12 colon): > 100 µM | TGI (RXF 393 renal): > 100 µM | TGI (SF-295 CNS): > 100 µM | TGI (OVCAR-8 ovarian): > 100 µM | TGI (HOP-92 NSCLC): > 100 µM | TGI (SK-MEL-28 melanoma): > 100 µM | TGI (A498 renal): > 100 µM | TGI (MOLT-4 leukemia): > 100 µM | TGI (UACC-62 melanoma): > 100 µM

[O-]/N=N\c1on[n+](CCc2ccccc2)c1Cc1c(/N=N/[O-])on[n+]1CCc1ccccc1
TGI (HCT-15 colon): > 100 µM | TGI (HCT-116 colon): > 100 µM | TGI (SN12C renal): > 100 µM | TGI (OVCAR-5 ovarian): > 100 µM | TGI (HT29 colon): > 100 µM | TGI (UO-31 renal): > 100 µM | TGI (SNB-75 CNS): 40.2 µM | TGI (DU-145 prostate): > 100 µM | TGI (MALME-3M melanoma): 66.6 µM | TGI (COLO 205 colon): > 100 µM | TGI (OVCAR-3 ovarian): 39.8 µM | TGI (MDA-N): > 100 µM | TGI (BT-549 breast): 78.1 µM | TGI (LOX IMVI melanoma): > 100 µM | TGI (HS 578T breast): 62.2 µM | TGI (SK-MEL-2 melanoma): 94 µM | TGI (SW-620 colon): > 100 µM | TGI (K-562 leukemia): 65 µM | TGI (SK-MEL-5 melanoma): 88 µM | TGI (MDA-MB-231 breast): 88.6 µM | TGI (OVCAR-4 ovarian): 36.7 µM | TGI (NCI-H522 lung): 43.8 µM | TGI (MCF7 breast): > 100 µM | TGI (SK-OV-3 ovarian): > 100 µM | TGI (IGROV1 ovarian): 70 µM | TGI (A549 NSCLC): > 100 µM | TGI (SF-268 CNS): > 100 µM | TGI (PC-3 prostate): > 100 µM | TGI (U251 CNS): 52.7 µM | TGI (UACC-257 melanoma): > 100 µM | TGI (NCI/ADR-RES ovarian): > 100 µM | TGI (ACHN renal): > 100 µM | TGI (NCI-H23 lung): 61.3 µM | TGI (TK-10 renal): 56.2 µM | TGI (MDA-MB-435): > 100 µM | TGI (CCRF-CEM leukemia): > 100 µM | TGI (SNB-19 CNS): 93.2 µM | TGI (CAKI-1 renal): > 100 µM | TGI (SF-539 CNS): 37.1 µM | TGI (NCI-H460 lung): > 100 µM | TGI (NCI-H226 lung): 98.3 µM | TGI (HCC-2998 colon): > 100 µM | TGI (RPMI-8226 leukemia): > 100 µM | TGI (HL-60(TB) leukemia): > 100 µM | TGI (786-0 renal): 47.5 µM | TGI (SR leukemia): > 100 µM | TGI (HOP-62 NSCLC): 48.3 µM | TGI (EKVX NSCLC): > 100 µM | TGI (M14 melanoma): > 100 µM | TGI (KM12 colon): > 100 µM | TGI (RXF 393 renal): > 100 µM | TGI (T-47D breast): > 100 µM | TGI (SF-295 CNS): 74.2 µM | TGI (OVCAR-8 ovarian): 46.4 µM | TGI (HOP-92 NSCLC): 65.8 µM | TGI (SK-MEL-28 melanoma): > 100 µM | TGI (A498 renal): > 100 µM | TGI (MOLT-4 leukemia): > 100 µM | TGI (UACC-62 melanoma): > 100 µM
